molecular target: BAX (Homo sapiens, UniProt Q07812); experiment: SMAC mCherry assay in permeabilized Bax-/- Bak-/- BMK cells with recombinant Bax and cBid; format: cell-based, mouse; set-up: made in house; host or cells: Escherichia coli BL21-AI; conditions: 20 nM Bax, 0.5 nM cBid, 60-80 minutes; read-out: SMAC mCherry I.D IC50
Experimental: Bax−/− Bak−/− double-knockout Baby Mouse Kidney (BMK) cells stably expressing a SMAC-(1-56)-mCherry fusion protein were cultured in DMEM complete (DMEM supplemented with 10% FBS and 1× Penicillin-Streptomycin) in 10 cm diameter tissue-culture treated dishes at 37° C. in a humidified incubator with 5% CO2 in air. Cells were washed with PBS, incubated with 1×Trypsin and resuspended in DMEM complete. Detached cells were seeded at 6000 cells per well in 50 uL DMEM complete into a 384 well Perkin-Elmer Phenoplate, incubated at room-temperature for 30 minutes followed by incubation overnight at 37° C. in a humidified incubator with 5% CO2 in air. Recombinant Bax and recombinant cBid were quickly thawed between fingers and 25 mM compound stocks in DMSO were thawed at room temperature. An 8 point titration curve of each compound was created in a 384-well source plate containing Trehalose-Hepes Buffer (THB, 135 mM trehalose, 50 mM KCl, 10 mM HEPES-KOH pH 7.4, 5 mM succinate, 20 uM EDTA, 20 uM EGTA, 0.1% BSA) supplemented with 1/1000 DRAQ5, 0.0025% digitonin, 20 nM Bax and 0.5 nM cBid. The source plate also contained control wells with THB supplemented with 1/1000 DRAQ5, 0.0025% digitonin plus 20 nM Bax (negative control) or 20 nM Bax and 0.5 nM cBid (positive control). Using the Vantage automated liquid handler, DMEM complete media was removed from the cells growing in the 384 well Phenoplate. The cells were washed 2× with 30 uL THB and then 25 uL from the 384 well source plate containing THB proteins and compounds was transferred to the cells growing in the 384 well plate. The cells were incubated for 60-80 minutes at 37 C in a humidified incubator with 5% CO2 in air and then imaged on the Opera Phenix Microscope. Two image channels were acquired: 1) DRAQ5 channel, to visualize nuclei and aid in cell segmentation and 2) SMAC-mCherry channel to visualize mitochondria that retain SMAC-mCherry. Data was processed using PerkinElmer Harmony software where the cells were segmented using the DRAQ5 channel and the mean intensity of SMAC-mCherry for each cell was calculated. The single-cell lobject level data was exported and then analyzed using R code. A per cell SMAC-mCherry intensity cutoff was calculated as 1.33 times the mean per cell SMAC-mCherry intensity of the THB+Bax control. Cells with a SMAC-mCherry intensity below or equal to the cutoff were scored as “released”. The percentage SMAC-mCherry release was calculated as the number of cells scored as “released” divided by the total amount of cells multiplied by 100. Dose-response curves were fit to a 4-parameter log-logistic model to determine the IC50 value for each compound.

Chain of BAX (Q07812 whole entry, the tested form may be a part): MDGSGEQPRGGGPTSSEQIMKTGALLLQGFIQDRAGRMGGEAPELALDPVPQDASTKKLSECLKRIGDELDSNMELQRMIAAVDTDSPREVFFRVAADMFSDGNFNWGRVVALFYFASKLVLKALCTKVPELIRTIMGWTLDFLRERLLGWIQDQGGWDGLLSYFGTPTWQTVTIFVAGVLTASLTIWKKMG

Structure (SMILES)	IC50
COc1cc2ccnc(Nc3ccc(F)c(Cl)c3)c2cc1NC(=O)CCCCN1CCCCC1 [Compound 1-2, N-(1-((3-chloro-4-fluorophenyl)amino)-6-methoxyisoquinolin-7-yl)-5-(piperidin-1-yl)pentanamide]	0.1 to 10 µM
COc1cc2ccnc(Nc3ccc(F)c(Cl)c3)c2cc1NC(=O)CCN1CCCCC1 [Compound 1-3, N-(1-((3-chloro-4-fluorophenyl)amino)-6-methoxyisoquinolin-7-yl)-3-(piperidin-1-yl)propanamide]	11 to 50 µM
COc1cc2ccnc(Nc3ccc(F)c(Cl)c3)c2cc1NC(=O)CCCN1CCCC1 [Compound 1-4]	0.1 to 10 µM
COc1cc2ccnc(Nc3ccc(F)c(Cl)c3)c2cc1NC(=O)CCCN1C[C@@H](C)O[C@@H](C)C1 [Compound 1-5, N-(1-((3-chloro-4-fluorophenyl)amino)-6-methoxyisoquinolin-7-yl)-4-((2S,6R)-2,6-dimethylmorpholino)butanamide]	0.1 to 10 µM
COc1cc2ccnc(Nc3ccc(F)c(Cl)c3)c2cc1NC(=O)CCCN1CCOCC1 [Compound 1-6, N-(1-((3-chloro-4-fluorophenyl)amino)-6-methoxyisoquinolin-7-yl)-4-morpholinobutanamide]	11 to 50 µM
COc1cc2ccnc(Nc3ccc(F)c(Cl)c3)c2cc1NC(=O)CCCN1CCN(C)CC1 [Compound 1-7, N-(1-((3-chloro-4-fluorophenyl)amino)-6-methoxyisoquinolin-7-yl)-4-(4-methylpiperazin-1-yl)butanamide]	0.1 to 10 µM
COc1cc2ccnc(Nc3ccc(F)c(Cl)c3)c2cc1NC(=O)CCCN1CCC(F)(F)CC1 [Compound 1-8, N-(1-((3-chloro-4-fluorophenyl)amino)-6-methoxyisoquinolin-7-yl)-4-(4,4-difluoropiperidin-1-yl)butanamide]	0.1 to 10 µM
COc1cc2ccnc(Nc3cccc(F)c3)c2cc1NC(=O)CCCN1CCCCC1 [Compound 1-9, N-(1-((3-fluorophenyl)amino)-6-methoxyisoquinolin-7-yl)-4-(piperidin-1-yl)butanamide]	11 to 50 µM
COc1cccc(Nc2nccc3cc(OC)c(NC(=O)CCCN4CCCCC4)cc23)c1 [Compound 1-10, N-(6-methoxy-1-((3-methoxyphenyl)amino)isoquinolin-7-yl)-4-(piperidin-1-yl)butanamide]	> 100 µM
COc1cc2ccnc(Nc3cccc(C)c3)c2cc1NC(=O)CCCN1CCCCC1 [Compound 1-11, N-(6-methoxy-1-(m-tolylamino)isoquinolin-7-yl)-4-(piperidin-1-yl)butanamide]	51 to 100 µM
COc1cc2ccnc(Nc3ccc(F)cc3)c2cc1NC(=O)CCCN1CCCCC1 [Compound 1-12, N-(1-((4-fluorophenyl)amino)-6-methoxyisoquinolin-7-yl)-4-(piperidin-1-yl)butanamide]	51 to 100 µM
COc1cc2ccnc(Nc3cccc(Cl)c3)c2cc1NC(=O)CCCN1CCCCC1 [Compound 1-13, N-(1-((3-chlorophenyl)amino)-6-methoxyisoquinolin-7-yl)-4-(piperidin-1-yl)butanamide]	11 to 50 µM
COc1cc2ccnc(Nc3ccc(C)cc3)c2cc1NC(=O)CCCN1CCCCC1 [Compound 1-14, N-(6-methoxy-1-(p-tolylamino)isoquinolin-7-yl)-4-(piperidin-1-yl)butanamide]	51 to 100 µM
COc1cc2ccnc(Nc3ccccc3)c2cc1NC(=O)CCCN1CCCCC1 [Compound 1-15, N-(6-methoxy-1-(phenylamino)isoquinoin-l7-yl)-4-(piperidin-1-yl)butanamide]	51 to 100 µM
COc1cc2ccnc(Nc3ccc(F)c(C(F)(F)F)c3)c2cc1NC(=O)CCCN1CCCCC1 [Compound 1-16, N-(1-((4-fluoro-3-(trifluoromethyl)phenyl)amino)-6-methoxyisoquinolin-7-yl)-4-(piperidin-1-yl)butanamide]	0.1 to 10 µM
Cc1cc2ccnc(Nc3ccc(F)c(Cl)c3)c2cc1NC(=O)CCCN1CCCCC1 [Compound 1-17, N-(1-((3-chloro-4-fluorophenyl)amino)-6-methylisoquinolin-7-yl)-4-(piperidin-1-yl)butanamide]	11 to 50 µM

Structure (SMILES)	IC50
O=C(CCCN1CCCCC1)Nc1ccc2ccnc(Nc3ccc(F)c(Cl)c3)c2c1 [Compound 1-18, N-(1-((3-chloro-4-fluorophenyl)amino)isoquinolin-7-yl)-4-(piperidin-1-yl)butanamide]	0.1 to 10 µM
COc1cc2ccnc(Nc3ccc(C)c(Cl)c3)c2cc1NC(=O)CCCN1CCCCC1 [Compound 1-21, N-(1-((3-chloro-4-methylphenyl)amino)-6-methoxyisoquinolin-7-yl)-4-(piperidin-1-yl)butanamide]	0.1 to 10 µM
COc1cc(Nc2nccc3cc(OC)c(NC(=O)CCCN4CCCCC4)cc23)ccc1F [Compound 1-22, N-(1-((4-fluoro-3-methoxyphenyl)amino)-6-methoxyisoquinolin-7-yl)-4-(piperidin-1-yl)butanamide]	11 to 50 µM
COc1cc2ccnc(Nc3cc(Cl)c(F)c(Cl)c3)c2cc1NC(=O)CCCN1CCCCC1 [Compound 1-23, N-(1-((3,5-dichloro-4-fluorophenyl)amino)-6-methoxyisoquinolin-7-yl)-4-(piperidin-1-yl)butanamide]	0.1 to 10 µM
COc1ccc(Nc2nccc3cc(OC)c(NC(=O)CCCN4CCCCC4)cc23)cc1Cl [Compound 1-24, N-(1-((3-chloro-4-methoxyphenyl)amino)-6-methoxyisoquinolin-7-yl)-4-(piperidin-1-yl)butanamide]	11 to 50 µM
COc1cc2ccnc(Nc3cc(F)cc(Cl)c3)c2cc1NC(=O)CCCN1CCCCC1 [Compound 1-25, N-(1-((3-chloro-5-fluorophenyl)amino)-6-methoxyisoquinolin-7-yl)-4-(piperidin-1-yl)butanamide]	0.1 to 10 µM
O=C(CCCN1CCCCC1)Nc1cc2c(Nc3ccc(F)c(Cl)c3)nccc2cc1Cl [Compound 1-26, N-(6-chloro-1-((3-chloro-4-fluorophenyl)amino)isoquinolin-7-yl)-4-(piperidin-1-yl)butanamide]	0.1 to 10 µM
COc1cc2ccnc(Nc3ccc(Cl)c(Cl)c3)c2cc1NC(=O)CCCN1CCCCC1 [Compound 1-27, N-(1-((3,4-dichlorophenyl)amino)-6-methoxyisoquinolin-7-yl)-4-(piperidin-1-yl)butanamide]	0.1 to 10 µM
CCc1cc(Nc2nccc3cc(OC)c(NC(=O)CCCN4CCCCC4)cc23)ccc1F [Compound 1-28, N-(1-((3-ethyl-4-fluorophenyl)amino)-6-methoxyisoquinolin-7-yl)-4-(piperidin-1-yl)butanamide]	11 to 50 µM
COc1cc(NC(=O)CCCN2CCCCC2)cc2c(Nc3ccc(F)c(Cl)c3)nccc12 [Compound 1-29, N-(1-((3-chloro-4-fluorophenyl)amino)-5-methoxyisoquinolin-7-yl)-4-(piperidin-1-yl)butanamide]	0.1 to 10 µM
COc1cc2ccnc(Nc3ccc(F)c(C(C)C)c3)c2cc1NC(=O)CCCN1CCCCC1 [Compound 1-30, N-(1-((4-fluoro-3-isopropylphenyl)amino)-6-methoxyisoquinolin-7-yl)-4-(piperidin-1-yl)butanamide]	11 to 50 µM
COc1cc2ccnc(Nc3ccc(F)c(Cl)c3)c2cc1N(C)C(=O)CCCN1CCCCC1 [Compound 1-31, N-(1-((3-chloro-4-fluorophenyl)amino)-6-methoxyisoquinolin-7-yl)-N-methyl-4-(piperidin-1-yl)butanamide]	11 to 50 µM
Cc1ccc(Nc2nccc3ccc(NC(=O)CCCN4CCCCC4)cc23)cc1Cl [Compound 1-32, N-(1-((3-chloro-4-methylphenyl)amino)isoquinolin-7-yl)-4-(piperidin-1-yl)butanamide]	0.1 to 10 µM
O=C(CCCN1CCCCC1)Nc1ccc2ccnc(Nc3ccc(F)c(C(F)(F)F)c3)c2c1 [Compound 1-33, N-(1-((4-fluoro-3-(trifluoromethyl)phenyl)amino)isoquinolin-7-yl)-4-(piperidin-1-yl)butanamide]	0.1 to 10 µM
O=C(CCCN1CCCCC1)Nc1ccc2ccnc(Nc3ccc(Cl)c(Cl)c3F)c2c1 [Compound 1-34, N-(1-((3,4-dichloro-2-fluorophenyl)amino)isoquinolin-7-yl)-4-(piperidin-1-yl)butanamide]	0.1 to 10 µM
O=C(CCCN1CCCCC1)Nc1ccc2ccnc(Nc3ccc(Cl)c(Cl)c3)c2c1 [Compound 1-35, N-(1-((3,4-dichlorophenyl)amino)isoquinolin-7-yl)-4-(piperidin-1-yl)butanamide]	0.1 to 10 µM
